Reference: patent US7531554B2, “4-oxoquinoline compound and use thereof as HIV integrase inhibitor” (Japan Tobacco Inc., priority 2004, dated 2009)
Where a name gives a salt, the structure may show the parent alone.

Molecular target: T1, HIV integrase (Human immunodeficiency virus type 1 group M subtype B, UniProt P12497, F1332H)
T1 construct: HIV integrase full length gene (J. Virol., 67, 425-437 (1993)) in which phenylalanine at codon 185 was substituted by histidine; made in house; host or cells: Escherichia coli BL21(DE3)
Assay: Determination of enzyme (HIV integrase) inhibitory activity
Assay type: biochemical
Conditions: recombinant integrase protein (F185H), donor DNA/target DNA, absorbance at 450 nm
Procedure, shortened: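 Full-length HIV integrase bearing F185H mutation, E. coli-expressed and purified, preincubated with compound on plate-bound biotinylated donor DNA for 60 min at 37 °C; digoxigenin-labelled target DNA then added for 10 min. Strand transfer detected by peroxidase anti-digoxigenin ELISA at 450 nm; IC50 from inhibition versus no-compound and no-enzyme controls.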

Row | SMILES | IC50 [nM]
1 | CC(C)[C@@H](CO)n1cc(C(=O)O)c(=O)c2cc(Cc3cccc(Cl)c3F)c(OCCCN)cc21 [Example 4-19, 7-(3-aminopropoxy)-6-(3-chloro-2-fluorobenzyl)-1-((1S)-1-(hydroxymethyl)-2-methylpropyl)-4-oxo-1,4-dihydroquinoline-3-carboxylic acid hydrochloride] | 4.6
2 | CC(C)[C@@H](CO)n1cc(C(=O)O)c(=O)c2cc(Cc3cccc(Cl)c3F)c(Oc3cccnc3)cc21 [Example 4-20, 6-(3-chloro-2-fluorobenzyl)-1-((1S)-1-(hydroxymethyl)-2-methylpropyl)-4-oxo-7-(pyridin-3-yloxy)-1,4-dihydroquinoline-3-carboxylic acid hydrochloride] | 9.3
3 | CC(C)[C@@H](CO)n1cc(C(=O)O)c(=O)c2cc(Cc3cccc(Cl)c3F)c(N3CCC(O)CC3)cc21 [Example 4-21, 6-(3-chloro-2-fluorobenzyl)-1-((1S)-1-(hydroxymethyl)-2-methylpropyl)-7-(4-hydroxypiperidin-1-yl)-4-oxo-1,4-dihydroquinoline-3-carboxylic acid] | 6.6
4 | CC1CN(c2cc3c(cc2Cc2cccc(Cl)c2F)c(=O)c(C(=O)O)cn3[C@H](CO)C(C)C)CC(C)N1 (stereo partly drawn) [Example 4-22, 6-(3-chloro-2-fluorobenzyl)-7-(3,5-dimethylpiperazin-1-yl)-1-((1S)-1-(hydroxymethyl)-2-methylpropyl)-4-oxo-1,4-dihydroquinoline-3-carboxylic acid] | 7.1
5 | CC(C)[C@@H](CO)n1cc(C(=O)O)c(=O)c2cc(Cc3cccc(Cl)c3F)c(N3CC[C@@H](O)C3)cc21 [Example 4-23, 6-(3-chloro-2-fluorobenzyl)-1-((1S)-1-(hydroxymethyl)-2-methylpropyl)-7-((3R)-3-hydroxypyrrolidin-1-yl)-4-oxo-1,4-dihydroquinoline-3-carboxylic acid] | 27
6 | CC(C)[C@@H](CO)n1cc(C(=O)O)c(=O)c2cc(Cc3cccc(Cl)c3F)c(N3CC[C@H](O)C3)cc21 [Example 4-24, 6-(3-chloro-2-fluorobenzyl)-1-((1S)-1-(hydroxymethyl)-2-methylpropyl)-7-((3S)-3-hydroxypyrrolidin-1-yl)-4-oxo-1,4-dihydroquinoline-3-carboxylic acid] | 12
7 | CC(C)[C@@H](CO)n1cc(C(=O)O)c(=O)c2cc(Cc3cccc(Cl)c3F)c(OC3CCNCC3)cc21 [Example 4-25, 6-(3-chloro-2-fluorobenzyl)-1-((1S)-1-(hydroxymethyl)-2-methylpropyl)-4-oxo-7-(piperidin-4-yloxy)-1,4-dihydroquinoline-3-carboxylic acid] | 4.1
8 | CC(=O)N[C@H]1CCN(c2cc3c(cc2Cc2cccc(Cl)c2F)c(=O)c(C(=O)O)cn3[C@H](CO)C(C)C)C1 [Example 4-26, 7-((3S)-3-(acetylamino)pyrrolidin-1-yl)-6-(3-chloro-2-fluorobenzyl)-1-((1S)-1-(hydroxymethyl)-2-methylpropyl)-4-oxo-1,4-dihydroquinoline-3-carboxylic acid] | 9.2
9 | CC(=O)N[C@@H]1CCN(c2cc3c(cc2Cc2cccc(Cl)c2F)c(=O)c(C(=O)O)cn3[C@H](CO)C(C)C)C1 [Example 4-27, 7-((3R)-3-(acetylamino)pyrrolidin-1-yl)-6-(3-chloro-2-fluorobenzyl)-1-((1S)-1-(hydroxymethyl)-2-methylpropyl)-4-oxo-1,4-dihydroquinoline-3-carboxylic acid] | 16
10 | CC(C)[C@@H](CO)n1cc(C(=O)O)c(=O)c2cc(Cc3cccc(Cl)c3F)c(OCS(=O)(=O)N(C)C)cc21 [Example 4-28, 6-(3-chloro-2-fluorobenzyl)-7-((dimethylamino)sulfonylmethoxy)-1-((1S)-1-(hydroxymethyl)-2-methylpropyl)-4-oxo-1,4-dihydroquinoline-3-carboxylic acid] | 4.5
11 | CC(C)[C@@H](CO)n1cc(C(=O)O)c(=O)c2cc(Cc3cccc(Cl)c3F)c(N3CCN[C@H](C)C3)cc21 [Example 4-29, 6-(3-chloro-2-fluorobenzyl)-1-((1S)-1-(hydroxymethyl)-2-methylpropyl)-7-((3R)-3-methylpiperazin-1-yl)-4-oxo-1,4-dihydroquinoline-3-carboxylic acid] | 5.1
12 | CC(C)[C@@H](CO)n1cc(C(=O)O)c(=O)c2cc(Cc3cccc(Cl)c3F)c(N3CCN[C@@H](C)C3)cc21 [Example 4-30, 6-(3-chloro-2-fluorobenzyl)-1-((1S)-1-(hydroxymethyl)-2-methylpropyl)-7-((3S)-3-methylpiperazin-1-yl)-4-oxo-1,4-dihydroquinoline-3-carboxylic acid] | 6.1
13 | CC1CN(c2cc3c(cc2Cc2cccc(Cl)c2F)c(=O)c(C(=O)O)cn3[C@H](CO)C(C)C)CC(C)O1 (stereo partly drawn) [Example 4-31, 6-(3-chloro-2-fluorobenzyl)-7-(2,6-dimethylmorpholin-4-yl)-1-((1S)-1-(hydroxymethyl)-2-methylpropyl)-4-oxo-1,4-dihydroquinoline-3-carboxylic acid] | 13
14 | CC(C)[C@@H](CO)n1cc(C(=O)O)c(=O)c2cc(Cc3cccc(Cl)c3F)c(N3CCSCC3)cc21 [Example 4-32, 6-(3-chloro-2-fluorobenzyl)-1-((1S)-1-(hydroxymethyl)-2-methylpropyl)-4-oxo-7-(thiomorpholin-4-yl)-1,4-dihydroquinoline-3-carboxylic acid] | 7.1
15 | CC(C)[C@@H](CO)n1cc(C(=O)O)c(=O)c2cc(Cc3cccc(Cl)c3F)c(OCCN3CCNCC3)cc21 [Example 4-33, 6-(3-chloro-2-fluorobenzyl)-1-((1S)-1-(hydroxymethyl)-2-methylpropyl)-4-oxo-7-(2-(piperazin-1-yl)ethoxy)-1,4-dihydroquinoline-3-carboxylic acid dihydrochloride] | 5.7
16 | CC(C)[C@@H](CO)n1cc(C(=O)O)c(=O)c2cc(Cc3cccc(Cl)c3F)c(OCCCCN)cc21 [Example 4-34, 7-(4-aminobutoxy)-6-(3-chloro-2-fluorobenzyl)-1-((1S)-1-(hydroxymethyl)-2-methylpropyl)-4-oxo-1,4-dihydroquinoline-3-carboxylic acid hydrochloride] | 3.9
17 | CC(C)[C@@H](CO)n1cc(C(=O)O)c(=O)c2cc(Cc3cccc(Cl)c3F)c(N3CCNC(=O)C3)cc21 [Example 4-35, 6-(3-chloro-2-fluorobenzyl)-1-((1S)-1-(hydroxymethyl)-2-methylpropyl)-4-oxo-7-(3-oxopiperazin-1-yl)-1,4-dihydroquinoline-3-carboxylic acid] | 6
18 | CC(C)[C@@H](CO)n1cc(C(=O)O)c(=O)c2cc(Cc3cccc(Cl)c3F)c(OC3CCOCC3)cc21 [Example 4-36, 6-(3-chloro-2-fluorobenzyl)-1-((1S)-1-(hydroxymethyl)-2-methylpropyl)-4-oxo-7-(tetrahydropyran-4-yloxy)-1,4-dihydroquinoline-3-carboxylic acid] | 5.4
19 | CC(C)[C@@H](CO)n1cc(C(=O)O)c(=O)c2cc(Cc3cccc(Cl)c3F)c(O[C@@H]3CCNC3)cc21 [Example 4-37, 6-(3-chloro-2-fluorobenzyl)-1-((1S)-1-(hydroxymethyl)-2-methylpropyl)-4-oxo-7-((3R)-pyrrolidin-3-yloxy)-1,4-dihydroquinoline-3-carboxylic acid hydrochloride] | 4.4
20 | CC(C)[C@@H](CO)n1cc(C(=O)O)c(=O)c2cc(Cc3cccc(Cl)c3F)c(N3CC[C@H](N)C3)cc21 [Example 4-38, 7-((3S)-3-aminopyrrolidin-1-yl)-6-(3-chloro-2-fluorobenzyl)-1-((1S)-1-(hydroxymethyl)-2-methylpropyl)-4-oxo-1,4-dihydroquinoline-3-carboxylic acid] | 12
21 | CC(C)[C@@H](CO)n1cc(C(=O)O)c(=O)c2cc(Cc3cccc(Cl)c3F)c(N3CC[C@@H](N)C3)cc21 [Example 4-39, 7-((3R)-3-aminopyrrolidin-1-yl)-6-(3-chloro-2-fluorobenzyl)-1-((1S)-1-(hydroxymethyl)-2-methylpropyl)-4-oxo-1,4-dihydroquinoline-3-carboxylic acid] | 9.4
22 | CCOC(=O)N1CCC(Nc2cc3c(cc2Cc2cccc(Cl)c2F)c(=O)c(C(=O)O)cn3[C@H](CO)C(C)C)CC1 [Example 4-40, 6-(3-chloro-2-fluorobenzyl)-7-(1-(ethoxycarbonyl)piperidin-4-ylamino)-1-((1S)-1-(hydroxymethyl)-2-methylpropyl)-4-oxo-1,4-dihydroquinoline-3-carboxylic acid] | 6.8
23 | CC(=O)NCCOc1cc2c(cc1Cc1cccc(Cl)c1F)c(=O)c(C(=O)O)cn2[C@H](CO)C(C)C [Example 4-41, 7-(2-(acetylamino)ethoxy)-6-(3-chloro-2-fluorobenzyl)-1-((1S)-1-(hydroxymethyl)-2-methylpropyl)-4-oxo-1,4-dihydroquinoline-3-carboxylic acid] | 4.5
24 | CC(C)[C@@H](CO)n1cc(C(=O)O)c(=O)c2cc(Cc3cccc(Cl)c3F)c(NC3CCNCC3)cc21 [Example 4-42, 6-(3-chloro-2-fluorobenzyl)-1-((1S)-1-(hydroxymethyl)-2-methylpropyl)-4-oxo-7-(piperidin-4-ylamino)-1,4-dihydroquinoline-3-carboxylic acid] | 7.9
25 | CC(C)[C@@H](CO)n1cc(C(=O)O)c(=O)c2cc(Cc3cccc(Cl)c3F)c(OCc3ccccc3)cc21 [Example 4-43, 7-benzyloxy-6-(3-chloro-2-fluorobenzyl)-1-((1S)-1-(hydroxymethyl)-2-methylpropyl)-4-oxo-1,4-dihydroquinoline-3-carboxylic acid] | 6.4
26 | CC(C)[C@@H](CO)n1cc(C(=O)O)c(=O)c2cc(Cc3cccc(Cl)c3F)c(Oc3ccccc3)cc21 [Example 4-44, 6-(3-chloro-2-fluorobenzyl)-1-((1S)-1-(hydroxymethyl)-2-methylpropyl)-4-oxo-7-phenoxy-1,4-dihydroquinoline-3-carboxylic acid] | 4.9
